# Laboratory results as given in patent US20220348595A1, “COMPOUNDS AND METHODS FOR THE TARGETED DEGRADATION OF ESTROGEN RECEPTORS” (Endotarget Inc., priority 2021, published 2022).
# Where two headings read alike, the source gives them in different places.
# Experiments:
# Format in all cases: cell-based
# [1] = biological target: T1, ERα (Homo sapiens, UniProt P03372); test: ER degradation in MCF-7 cells (Western blot); settings: for DC50: ER degradation, 24 hours
# T1 construct: endogenous in cells; host or cells: MCF-7
# T1 sequence (P03372 1-595): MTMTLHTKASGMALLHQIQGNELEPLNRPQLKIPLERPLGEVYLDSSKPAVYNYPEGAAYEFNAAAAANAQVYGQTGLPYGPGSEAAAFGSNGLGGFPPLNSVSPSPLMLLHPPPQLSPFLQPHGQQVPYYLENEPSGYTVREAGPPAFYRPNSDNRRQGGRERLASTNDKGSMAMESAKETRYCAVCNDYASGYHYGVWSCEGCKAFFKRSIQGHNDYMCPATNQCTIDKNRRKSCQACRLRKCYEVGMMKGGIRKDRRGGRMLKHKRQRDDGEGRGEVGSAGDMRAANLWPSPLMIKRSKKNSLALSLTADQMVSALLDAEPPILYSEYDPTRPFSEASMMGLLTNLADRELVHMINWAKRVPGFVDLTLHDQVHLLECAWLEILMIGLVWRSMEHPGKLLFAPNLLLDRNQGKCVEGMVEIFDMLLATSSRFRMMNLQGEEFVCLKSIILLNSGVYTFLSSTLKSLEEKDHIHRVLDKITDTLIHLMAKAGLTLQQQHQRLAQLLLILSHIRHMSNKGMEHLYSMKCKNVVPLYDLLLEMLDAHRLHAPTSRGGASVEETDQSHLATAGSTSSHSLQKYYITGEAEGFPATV
# Summary of the method: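 MCF-7 cells treated with a range of compound concentrations for 24 hours, then lysed; 50 μg protein probed for ERα by Western blot with infrared imaging. DC50 is concentration giving 50% ER reduction; Dmax is the highest percentage reduction over the range tested.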
# [2] = biological target: T2, ER (Homo sapiens, UniProt P03372); test: ER antagonism (T47D ERE luciferase), T47d-kb-Luc cells; settings: read-out: IC50 (ER antagonistm)
# T2 construct: endogenous in cells; host or cells: T47d-kb-Luc (T47D stably transfected with a luciferase reporter gene only)
# T2 sequence (P03372 1-595): T1 sequence (P03372 1-595)
# Summary of the method: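 Stably transfected T47d-kb-Luc human breast cancer cells were used, and antagonism was measured as inhibition of estradiol-driven activity. Data were normalised to the estradiol control. Five concentrations were tested in quadruplicate across at least three experiments.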
# [3] = system: MCF-7 breast cancer cells; test: MCF-7 proliferation / cell viability assay; settings: MCF-7 proliferation with 0.1 nM 17-beta estradiol, read-out: IC50 (anti-proliferation)
# Summary of the method: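 MCF-7 cells in 5% FBS DMEM were exposed for 5 days to compound at 6 doses from 10^−10 M to 10^−5 M, with DMSO as vehicle. Viable cells were counted by Coulter counter. Survival ratio = treated/vehicle viable cell number, vehicle set to 100%.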
# [4] = MCF7, Maximal ER degradation, read-out: Dmax
SMILES,DC50 [1],"Dmax [1, 4]",IC50 [2],"IC50 ([3]; Homo sapiens, MCF7)",Dmax ([1]; Maximal ER degradation),IC50 [3]
CC/C(=C(\c1ccc(B(O)O)cc1)c1ccc(N2CCC(CN3CCN(c4ccc5c(c4)CN(C4CCC(=O)NC4=O)C5=O)CC3)CC2)cc1)c1ccccc1 (stereo not shown) [Compound 1],< 0.01 µM,> 90%,0.01 to 0.05 µM,0.01 to 0.05 µM,,
"CC/C(=C(/c1ccc(B(O)O)cc1)c1ccc(N2CCC(CNC3CCN(c4ccc5c(c4)C(=O)N(C4CCC(=O)NC4=O)C5=O)CC3)CC2)cc1)c1ccccc1 (stereo not shown) [Compound 40, (E)-(4-(1-(4-(4-(((1-(2-(2,6-dioxopiperidin-3-yl)-1,3-dioxoisoindolin-5-yl)piperidin-4-yl)amino)methyl)piperidin-1-yl)phenyl)-2-phenylbut-1-en-1-yl)phenyl)boronic acid]",< 0.01 µM,> 90%,0.01 to 0.05 µM,0.01 to 0.05 µM,,
CC/C(=C(/c1ccc(B(O)O)cc1)c1ccc(N2CCN(CCCC3CCN(c4ccc5c(c4)CN(C4CCC(=O)NC4=O)C5=O)CC3)CC2)cc1)c1ccccc1 (stereo not shown) [Compound 58],< 0.01 µM,> 90%,0.01 to 0.05 µM,0.01 to 0.05 µM,,
"CC/C(=C(\c1ccc(B(O)O)cc1)c1ccc(N2CCC(CNC3CCN(c4ccc5c(c4)C(=O)N(C4CCC(=O)NC4=O)C5)CC3)CC2)cc1)c1ccccc1 (stereo not shown) [Compound 13, (Z)-(4-(1-(4-(4-(((1-(2-(2,6-dioxopiperidin-3-yl)-3-oxoisoindolin-5-yl)piperidin-4-yl)amino)methyl)piperidin-1-yl)phenyl)-2-phenylbut-1-en-1-yl)phenyl)boronic acid]",< 0.01 µM,> 90%,< 0.01 µM,< 0.01 µM,,
"CC/C(=C(/c1ccc(B(O)O)cc1)c1ccc(N2CCC(CCN3CCN(c4ccc5c(c4)CN(C4CCC(=O)NC4=O)C5=O)CC3)CC2)cc1)c1ccccc1 (stereo not shown) [Compound 8, (E)-(4-(1-(4-(4-(2-(4-(2-(2,6-dioxopiperidin-3-yl)-1-oxoisoindolin-5-yl)piperazin-1-yl)ethyl)piperidin-1-yl)phenyl)-2-phenylbut-1-en-1-yl)phenyl)boronic acid]",0.01 to 0.05 µM,> 90%,< 0.01 µM,0.01 to 0.05 µM,,
"CC/C(=C(\c1ccc(B(O)O)cc1)c1ccc(C2CCN(CCCN3CCN(c4ccc5c(c4)CN(C4CCC(=O)NC4=O)C5=O)CC3)CC2)cc1)c1ccccc1 (stereo not shown) [Compound 49, (Z)-(4-(1-(4-(1-(3-(4-(2-(2,6-dioxopiperidin-3-yl)-1-oxoisoindolin-5-yl)piperazin-1-yl)propyl)piperidin-4-yl)phenyl)-2-phenylbut-1-en-1-yl)phenyl)boronic acid]",< 0.01 µM,> 90%,< 0.01 µM,0.01 to 0.05 µM,,
"CC/C(=C(\c1ccc(OCCN2CCN(c3ccc4c(c3)C(=O)N(C3CCC(=O)NC3=O)C4=O)CC2)cc1)c1ccc(B(O)O)cc1)c1ccccc1 (stereo not shown) [Compound 42, (E)-(4-(1-(4-(2-(4-(2-(2,6-dioxopiperidin-3-yl)-1,3-dioxoisoindolin-5-yl)piperazin-1 yl)ethoxy)phenyl)-2-phenylbut-1-en-1-yl)phenyl)boronic acid]",0.01 to 0.05 µM,> 50%,0.01 to 0.05 µM,0.01 to 0.05 µM,,
CC/C(=C(\c1ccc(O)cc1)c1ccc(N2CCN(C(=O)N3CCN(c4ccc5c(c4)CN([C@H]4CCC(=O)NC4=O)C5=O)CC3)CC2)cc1)c1ccccc1 [Compound 98],0.01 to 0.05 µM,,< 0.01 µM,,A (A -> 90%),0.01 to 0.05 µM
"CC/C(=C(\c1ccc(B(O)O)cc1)c1ccc(N2CCN(CCCC3CCN(c4ccc5c(c4)CN(C4CCC(=O)NC4=O)C5=O)CC3)CC2)cc1)c1ccccc1 (stereo not shown) [Compound 57, (Z)-(4-(1-(4-(4-(3-(1-(2-(2,6-dioxopiperidin-3-yl)-1-oxoisoindolin-5-yl)piperidin-4-yl)propyl)piperazin-1-yl)phenyl)-2-phenylbut-1-en-1-yl)phenyl)boronic acid]",< 0.01 µM,> 90%,0.01 to 0.05 µM,0.01 to 0.05 µM,,
"CC/C(=C(/c1ccc(B(O)O)cc1)c1ccc(N2CCN(CCCN3CCN(c4ccc5c(c4)C(=O)N(C4CCC(=O)NC4=O)C5=O)CC3)CC2)cc1)c1ccccc1 (stereo not shown) [Compound 44, (E)-(4-(1-(4-(4-(3-(4-(2-(2,6-dioxopiperidin-3-yl)-1,3-dioxoisoindolin-5-yl)piperazin-1-yl)propyl)piperazin-1-yl)phenyl)-2-phenylbut-1-en-1-yl)phenyl)boronic acid]",< 0.01 µM,> 90%,< 0.01 µM,0.01 to 0.05 µM,,

# The next lines start with results.
DC50 [1],"Dmax [1, 4]",IC50 [2],"IC50 ([3]; Homo sapiens, MCF7)",SMILES,Dmax ([1]; Maximal ER degradation),IC50 [3]
< 0.01 µM,> 90%,< 0.01 µM,< 0.01 µM,"CC/C(=C(/c1ccc(B(O)O)cc1)c1ccc(N2CCN(CCC3CCN(c4ccc5c(c4)CN(C4CCC(=O)NC4=O)C5=O)CC3)CC2)cc1)c1ccccc1 (stereo not shown) [Compound 68, (E)-(4-(1-(4-(4-(2-(1-(2-(2,6-dioxopiperidin-3-yl)-1-oxoisoindolin-5-yl)piperidin-4-yl)ethyl)piperazin-1-yl)phenyl)-2-phenylbut-1-en-1-yl)phenyl)boronic acid]",,
< 0.01 µM,> 90%,< 0.01 µM,< 0.01 µM,"CC/C(=C(/c1ccc(O)cc1)c1ccc(OCCN2CCN(C(=O)N3CCC(CN4CCN(c5ccc6c(c5)CN(C5CCC(=O)NC5=O)C6=O)CC4)CC3)CC2)cc1)c1ccccc1 (stereo not shown) [Compound 90, (E)-3-(5-(4-((1-(4-(2-(4-(1-(4-hydroxyphenyl)-2-phenylbut-1-en-1-yl)phenoxy)ethyl)piperazine-1-carbonyl)piperidin-4-yl)methyl)piperazin-1-yl)-1-oxoisoindolin-2-yl)piperidine-2,6-dione]",,
< 0.01 µM,> 90%,< 0.01 µM,< 0.01 µM,"CC/C(=C(\c1ccc(OCCN2CCN(C(=O)N3CCN(c4ccc5c(c4)CN([C@H]4CCC(=O)NC4=O)C5=O)CC3)CC2)cc1)c1ccc(B(O)O)cc1)c1ccccc1 [Compound 87, (S,E)-(4-(1-(4-(2-(4-(4-(2-(2,6-dioxopiperidin-3-yl)-1-oxoisoindolin-5-yl)piperazine-1-carbonyl)piperazin-1-yl)ethoxy)phenyl)-2-phenylbut-1-en-1-yl)phenyl)boronic acid]",,
< 0.01 µM,> 90%,< 0.01 µM,< 0.01 µM,CC/C(=C(/c1ccc(OCCN2CCN(C(=O)N3CCN(c4ccc5c(c4)CN([C@H]4CCC(=O)NC4=O)C5=O)CC3)CC2)cc1)c1ccc(B(O)O)cc1)c1ccccc1 [Compound 84],,
< 0.01 µM,> 90%,< 0.01 µM,< 0.01 µM,CC/C(=C(/c1ccc(OCCN2CCN(CC3CCN(c4ccc5c(c4)CN([C@@H]4CCC(=O)NC4=O)C5=O)CC3)CC2)cc1)c1ccc(B(O)O)cc1)c1ccccc1 [Compound 70],,
< 0.01 µM,> 90%,< 0.01 µM,< 0.01 µM,CC/C(=C(/c1ccc(B(O)O)cc1)c1ccc(N2CCN(C(=O)N3CCN(c4ccc5c(c4)CN(C4CCC(=O)NC4=O)C5=O)CC3)CC2)cc1)c1ccccc1 (stereo not shown) [Compound 106],,
< 0.01 µM,> 90%,< 0.01 µM,< 0.01 µM,"CC/C(=C(\c1ccc(OCCN2CCC(CN3CCN(c4ccc5c(c4)CN([C@H]4CCC(=O)NC4=O)C5=O)CC3)CC2)cc1)c1ccc(B(O)O)cc1)c1ccccc1 [Compound 75, (S,E)-(4-(1-(4-(2-(4-((4-(2-(2,6-dioxopiperidin-3-yl)-1-oxoisoindolin-5-yl)piperazin-1-yl)methyl)piperidin-1-yl)ethoxy)phenyl)-2-phenylbut-1-en-1-yl)phenyl)boronic acid]",,
< 0.01 µM,> 90%,< 0.01 µM,< 0.01 µM,"CC/C(=C(/c1ccc(B(O)O)cc1)c1ccc(N2CCN(C(=O)N3CCN(c4ccc5c(c4)CN([C@@H]4CCC(=O)NC4=O)C5=O)CC3)CC2)cc1)c1ccccc1 [Compound 108, (R,E)-(4-(1-(4-(4-(4-(2-(2,6-dioxopiperidin-3-yl)-1-oxoisoindolin-5-yl)piperazine-1-carbonyl)piperazin-1-yl)phenyl)-2-phenylbut-1-en-1-yl)phenyl)boronic acid]",,
< 0.01 µM,> 90%,< 0.01 µM,< 0.01 µM,"CC/C(=C(/c1ccc(O)cc1)c1ccc(OCCN2CCN(C(=O)N3CCN(c4ccc5c(c4)CN(C4CCC(=O)NC4=O)C5=O)CC3)CC2)cc1)c1ccccc1 (stereo not shown) [Compound 80, (E)-3-(5-(4-(4-(2-(4-(1-(4-hydroxyphenyl)-2-phenylbut-1-en-1-yl)phenoxy)ethyl)piperazine-1-carbonyl)piperazin-1-yl)-1-oxoisoindolin-2-yl)piperidine-2,6-dione]",,
